The text below walks through data of paper PMC2882332, “Species Used for Drug Testing Reveal Different Inhibition Susceptibility for 17beta-Hydroxysteroid Dehydrogenase Type 1” (PLoS ONE, 2010).

For orientation: inhibition means the relative decrease from the control value, in per cent.

One assay concerns the target T1, rat 17β-HSD 1 (Rattus norvegicus, UniProt P51657).
T1 construct: Full length cDNAs of several 17β-HSDs type 1 originating from different species were cloned; made in house; host or cells: E.coli BL21 DE3 Codon Plus RP
T1 sequence (P51657 1-344): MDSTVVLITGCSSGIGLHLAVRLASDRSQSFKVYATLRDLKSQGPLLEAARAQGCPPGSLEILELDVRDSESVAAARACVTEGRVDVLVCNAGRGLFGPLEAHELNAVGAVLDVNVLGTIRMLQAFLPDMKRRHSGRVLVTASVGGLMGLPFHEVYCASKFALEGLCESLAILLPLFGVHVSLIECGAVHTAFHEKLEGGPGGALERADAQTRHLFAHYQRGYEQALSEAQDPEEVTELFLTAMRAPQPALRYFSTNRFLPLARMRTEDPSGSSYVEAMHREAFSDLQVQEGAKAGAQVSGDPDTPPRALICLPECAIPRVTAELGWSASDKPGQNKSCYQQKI
The assay can be described thus: In vitro enzymatic activity, recombinant rat 17β-HSD 1. It is filed as biochemical. The conditions noted are these: 2 µM compound, 15 nM 3H-estrone, read-out: Observed % inhibition. The text has this:
(§1) Full length cDNAs of several 17β-HSDs type 1 originating from different species were cloned either into the pQE30 vector (human 17β-HSD 1, coding for acc. no. NP_000404) for expression as His-Tag protein or into a modified pGex-2T vector [63] (mouse 17β-HSD 1, acc. no. NP_034605; rat 17β-HSD 1, acc. no. NP_036983; marmoset 17β-HSD 1, acc. no. AAG01115; porcine 17β-HSD 1, acc. no. NP_001121944) for expression as GST-fusion proteins. The marmoset 17β-HSD 1 enzyme sequence was updated by the missing N-terminal part (AF272013) and the new porcine sequence was submitted to GenBank (NP_001121944). Human 17β-HSDs 2, 4, 5 (AKR1C3, the latter kindly provided by Dr. T. Penning) and 7 were all cloned into the modified pGEX-2T vector. For 17β-HSD 4 only the SDR-domain converting the steroids was subcloned. Plasmids were transformed into E.coli BL21 DE3 Codon Plus RP (Stratagene) and enzyme expression was induced by 0.5 mM IPTG. After 4h incubation at 37°C with continuous shaking bacteria were pelleted by centrifugation at 10.000×g. Pellets were stored until use at −20°C.
(§2) The bacteria containing recombinant enzymes were resuspended in PBS and enzymatic assays were performed in 100 mM sodium phosphate buffer at pH 6.6 for the reductive reaction and at pH 7.7 for the oxidative reaction. […] All substrates were purchased from NEN/Perkin Elmer. The cofactors NADPH (Sigma; for reductive reactions) and NAD^+ (Serva, for oxidative reactions) were used at final concentrations of 0.5 mg/ml. […] The incubation at 37°C was stopped with 0.21 M ascorbic acid in methanol∶acetic acid 99∶1 (v∶v) after the time needed to convert approximately 30% of the substrate in a control assay with 1% DMSO, without inhibitor candidates. […] The solvent used was acetonitrile∶water (43∶57, v∶v) at a flow rate of 1 ml/min. Radioactivity was detected by online-scintillation counting (Berthold LB506D) after mixing with ReadyFlowIII (Beckman). Conversion was calculated from integration of substrate and product peaks. […] All assays were run in duplicates of two independent experiments and mean values are reported. The IC50 values were determined by the One Ligand Binding model of SigmaPlot kinetics module.

In another assay the target is T2, mouse 17β-HSD 1 (Mus musculus, UniProt P51656).
T2 construct: Full length cDNAs of several 17β-HSDs type 1 originating from different species were cloned; made in house; host or cells: E.coli BL21 DE3 Codon Plus RP
T2 sequence (P51656 1-344): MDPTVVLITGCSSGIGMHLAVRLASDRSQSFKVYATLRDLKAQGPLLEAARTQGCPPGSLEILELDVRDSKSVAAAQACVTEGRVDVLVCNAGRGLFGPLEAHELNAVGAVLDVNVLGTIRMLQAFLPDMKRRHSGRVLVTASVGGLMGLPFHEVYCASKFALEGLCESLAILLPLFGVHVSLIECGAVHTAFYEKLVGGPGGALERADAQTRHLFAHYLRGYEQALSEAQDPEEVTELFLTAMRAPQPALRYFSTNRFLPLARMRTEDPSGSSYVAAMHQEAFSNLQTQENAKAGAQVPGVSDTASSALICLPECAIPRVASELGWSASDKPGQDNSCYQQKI
The assay can be described thus: In vitro enzymatic activity, recombinant mouse 17β-HSD 1. It is filed as biochemical. The conditions noted are these: 2 µM compound, 15 nM 3H-estrone, read-out: Observed % inhibition.
From the text: as §1, §2

Assay [1] has as its system 17β-HSD 1 orthologs of five species. The assay can be described thus: In vitro enzymatic activity, 17β-HSD 1 orthologs of five species taken together. Format: biochemical, human, marmoset, mouse, pig, rat. The conditions noted are these: average over the 17β-HSD 1 orthologs of the species; 2 µM compound.
The target of the next assay is T3, human 17β-HSD 1 (Homo sapiens, UniProt P14061).
T3 construct: Full length cDNAs of several 17β-HSDs type 1 originating from different species were cloned; made in house; host or cells: E.coli BL21 DE3 Codon Plus RP
T3 sequence (P14061 1-328): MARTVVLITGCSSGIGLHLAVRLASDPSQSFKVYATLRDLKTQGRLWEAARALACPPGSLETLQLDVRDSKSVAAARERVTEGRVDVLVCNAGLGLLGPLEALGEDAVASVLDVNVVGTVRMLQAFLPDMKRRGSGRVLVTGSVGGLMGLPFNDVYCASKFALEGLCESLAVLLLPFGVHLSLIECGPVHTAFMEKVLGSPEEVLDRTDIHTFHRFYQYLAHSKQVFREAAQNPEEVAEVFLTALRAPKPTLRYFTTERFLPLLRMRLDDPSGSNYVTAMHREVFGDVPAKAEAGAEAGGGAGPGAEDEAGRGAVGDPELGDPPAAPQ
The assay can be described thus: In vitro enzymatic activity, recombinant human 17β-HSD 1 (estrone reduction). The note with it: pH 6.6, read-out: Observed % inhibition. It is filed as biochemical.
From the text: as §1, §2

Another assay addresses T4, marmoset 17β-HSD 1 (Callithrix jacchus, UniProt Q9GME2).
T4 sequence (Q9GME2 1-314): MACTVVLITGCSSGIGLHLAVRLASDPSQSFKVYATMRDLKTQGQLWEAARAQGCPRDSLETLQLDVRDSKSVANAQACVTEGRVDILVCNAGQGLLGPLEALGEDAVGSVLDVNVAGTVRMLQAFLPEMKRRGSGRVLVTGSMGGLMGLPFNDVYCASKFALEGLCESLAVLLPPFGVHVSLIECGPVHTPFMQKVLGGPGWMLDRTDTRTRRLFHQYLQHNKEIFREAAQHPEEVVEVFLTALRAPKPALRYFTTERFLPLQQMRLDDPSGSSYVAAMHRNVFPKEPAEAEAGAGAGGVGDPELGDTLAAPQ
The assay can be described thus: In vitro enzymatic activity, recombinant marmoset 17β-HSD 1. It is filed as biochemical. The note with it: marmoset 17β-HSD 1; 2 µM compound; 15 nM 3H-estrone; read-out: Observed % inhibition.
From the text: as §1, §2

Another assay deals with T5, porcine 17β-HSD 1 (Sus scrofa, UniProt B2X0A4).
T5 sequence (B2X0A4 1-321): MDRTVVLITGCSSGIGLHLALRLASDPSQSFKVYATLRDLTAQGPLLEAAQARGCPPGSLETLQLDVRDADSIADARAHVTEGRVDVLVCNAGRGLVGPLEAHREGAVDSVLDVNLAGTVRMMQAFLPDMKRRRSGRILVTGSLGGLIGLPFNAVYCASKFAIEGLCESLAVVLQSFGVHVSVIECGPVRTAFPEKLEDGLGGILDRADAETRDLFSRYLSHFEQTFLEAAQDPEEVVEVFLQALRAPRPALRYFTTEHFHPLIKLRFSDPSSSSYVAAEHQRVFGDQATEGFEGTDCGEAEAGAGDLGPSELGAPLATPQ
Description: In vitro enzymatic activity, recombinant porcine 17β-HSD 1. It is filed as biochemical, pig. The conditions noted are these: read-out: Observed % inhibition.
From the text: as §1, §2

As to `C[C@]12CC[C@@H]3c4ccc(O)cc4CC[C@H]3[C@@H]1CCC2=O` [Compound 6, estrone, reference compound], the inhibition at 2 µM at rat 17β-HSD 1 is 79.1%; at mouse 17β-HSD 1, 101%; on human 17β-HSD 1 it was 101%; at marmoset 17β-HSD 1 it was 110%; at porcine 17β-HSD 1, 86.3%. In addition, the “Observed % inhibition, average” value in assay [1] is 95.4%.
